From patent US8192962B2, “Processes for detecting toxic substances” (Daikin Industries, Ltd., priority 2001, dated 2012)

System: Metabolism protein genes
Experiment: DNA chip mRNA expression in yeast, metabolism protein genes (Table 7)
Assay type: cell-based, Saccharomyces cerevisiae S288C
Method: Yeast (Saccharomyces cerevisiae S288C (α SUC2mal mel gap2 CUP1)) were incubated at 25° C. on YPD medium (yeast extract 1%, polypepton 2%, glucose 2%). One of toxic chemical substances was added to the cells at logarithmic growth phase, and the cells were further incubated for two hours. Cells were cultured without any chemical substance in the same condition, and were used as control. Concentrations of the chemical substances were defined to inhibit the growth of the yeast but not lead to death.
After completion of the incubation, the culture was centrifuged to collect the cells. To the cells, sodium acetate buffer (50 mM sodium acetate, 10 mM EDTA, 1% SDS) was added, and the mixture was shaken at 65° C. for five minutes, followed by returning to room temperature, and obtaining the supernatant, of which the procedures were repeated two times. To the supernatant, ½ amount of a solution of phenol/chloroform was added, and the mixture was centrifuged to give a supernatant, which was added with an equal amount of chloroform, and the mixture was centrifuged to give a supernatant. To the supernatant, an equal amount of isopropanol containing 0.3 M sodium acetate was added, and the mixture was allowed to stand at room temperature for 30 minutes, after which the mixture was centrifuged to give a sediment of the whole RNAs. Seventy % ethanol was added to the sediment, and the mixture was again centrifuged to give a sediment, which was then dried and dissolved in water. mRNA was isolated from the whole RNAs as followings. In view of the fact that a poly A chain is attached to the 3′ terminus of mRNA, a polynucleotide having a poly T structure which was immobilized on the surface of latex beads was used to trap the mRNA, and then the mRNA was washed and eluted with spine column (Oligotex-dT30<Super>mRNA Purification Kit, Takara). Reverse transcription of the mRNA was conducted with a reverse transcriptase (Super Script II Reverse Transcriptase; catalogue No. 18064-014, GibcoBRL) using fluorescence-labeled nucleotides to give cDNAs that were introduced with Cy3-dUTP or Cy5-dUTP during the reverse transcription.
The labeled cDNAs were dissolved in TE buffer (10mM Tris-HCl/1 mM EDTA, pH8.0), and the solution was dropped on the DNA chip containing the whole genes of yeast (DNA Chip Research Inc. Japan) so that the cDNAs were hybridized on the DNA chip at 65° C. for over 12 hours. The fluoresces intensity of the DNA chip was read with a scanner, and the ratio relative to the fluorescence intensity resulting from the absence of chemical substance was estimated as the following, which is shown in Tables 1 to 9: […]

Structure (SMILES): [Cl][Pb][Cl] [(4), PbCl2]
- The level of expressed mRNA in the presence of chemical substance/The level of expressed mRNA in the absence of chemical substance (yeast gene YAL012W): 0.8
- The level of expressed mRNA in the presence of chemical substance/The level of expressed mRNA in the absence of chemical substance (yeast gene YAL038W): 1.4
- level of expressed mRNA in the presence/in the absence of chemical substance (yeast gene YBR003W): 1.9
- level of expressed mRNA in the presence/in the absence of chemical substance (yeast gene YBR011C): 1.1
- level of expressed mRNA in the presence/in the absence of chemical substance (yeast gene YBR020W): 1.9
- The level of expressed mRNA in the presence of chemical substance/The level of expressed mRNA in the absence of chemical substance (yeast gene YBR023C): 1.1
- The level of expressed mRNA in the presence of chemical substance/The level of expressed mRNA in the absence of chemical substance (yeast gene YBR029C): 1.0
- The level of expressed mRNA in the presence of chemical substance/The level of expressed mRNA in the absence of chemical substance (yeast gene YBR183W): 2.9
- The level of expressed mRNA in the presence of chemical substance/The level of expressed mRNA in the absence of chemical substance (yeast gene YBR222C): 0.8
- The level of expressed mRNA in the presence of chemical substance/The level of expressed mRNA in the absence of chemical substance (yeast gene YBR256C): 1.3
- The level of expressed mRNA in the presence of chemical substance/The level of expressed mRNA in the absence of chemical substance (yeast gene YCL009C): 0.5
- The level of expressed mRNA in the presence of chemical substance/The level of expressed mRNA in the absence of chemical substance (yeast gene YCL064C): 0.8
- level of expressed mRNA in the presence/in the absence of chemical substance (yeast gene YCR010C): 4.2
- level of expressed mRNA in the presence/in the absence of chemical substance (yeast gene YCR034W): 0.9
- The level of expressed mRNA in the presence of chemical substance/The level of expressed mRNA in the absence of chemical substance (yeast gene YCR048W): 0.6
- The level of expressed mRNA in the presence of chemical substance/The level of expressed mRNA in the absence of chemical substance (yeast gene YCR098C): 2.0
- The level of expressed mRNA in the presence of chemical substance/The level of expressed mRNA in the absence of chemical substance (yeast gene YDR019C): 4.0
- level of expressed mRNA in the presence/in the absence of chemical substance (yeast gene YDR050C): 1.8
- level of expressed mRNA in the presence/in the absence of chemical substance (yeast gene YDR073W): 1.4
- level of expressed mRNA in the presence/in the absence of chemical substance (yeast gene YDR123C): 2.1
- level of expressed mRNA in the presence/in the absence of chemical substance (yeast gene YDR178W): 2.2
- level of expressed mRNA in the presence/in the absence of chemical substance (yeast gene YDR277C): 3.0
- level of expressed mRNA in the presence/in the absence of chemical substance (yeast gene YDR284C): 2.9
- level of expressed mRNA in the presence/in the absence of chemical substance (yeast gene YDR345C): 2.6
- The level of expressed mRNA in the presence of chemical substance/The level of expressed mRNA in the absence of chemical substance (yeast gene YDR380W): 1.7
- level of expressed mRNA in the presence/in the absence of chemical substance (yeast gene YDR400W): 0.7
- level of expressed mRNA in the presence/in the absence of chemical substance (yeast gene YDR408C): 4.1
- level of expressed mRNA in the presence/in the absence of chemical substance (yeast gene YDR483W): 2.0
- The level of expressed mRNA in the presence of chemical substance/The level of expressed mRNA in the absence of chemical substance (yeast gene YDR497C): 1.3
- The level of expressed mRNA in the presence of chemical substance/The level of expressed mRNA in the absence of chemical substance (yeast gene YDR502C): 1.2
- The level of expressed mRNA in the presence of chemical substance/The level of expressed mRNA in the absence of chemical substance (yeast gene YDR516C): 2.1
- level of expressed mRNA in the presence/in the absence of chemical substance (yeast gene YEL063C): 1.3
- level of expressed mRNA in the presence/in the absence of chemical substance (yeast gene YER015W): 1.5
- The level of expressed mRNA in the presence of chemical substance/The level of expressed mRNA in the absence of chemical substance (yeast gene YER026C): 1.0
- The level of expressed mRNA in the presence of chemical substance/The level of expressed mRNA in the absence of chemical substance (yeast gene YER053C): 1.7
- The level of expressed mRNA in the presence of chemical substance/The level of expressed mRNA in the absence of chemical substance (yeast gene YER069W): 1.4
- level of expressed mRNA in the presence/in the absence of chemical substance (yeast gene YER081W): 1.4
- The level of expressed mRNA in the presence of chemical substance/The level of expressed mRNA in the absence of chemical substance (yeast gene YER096W): 2.0
- level of expressed mRNA in the presence/in the absence of chemical substance (yeast gene YER120W): 0.8
- The level of expressed mRNA in the presence of chemical substance/The level of expressed mRNA in the absence of chemical substance (yeast gene YER178W): 1.0
- level of expressed mRNA in the presence/in the absence of chemical substance (yeast gene YFL011W): 3.3
- The level of expressed mRNA in the presence of chemical substance/The level of expressed mRNA in the absence of chemical substance (yeast gene YFL014W): 11.0
- The level of expressed mRNA in the presence of chemical substance/The level of expressed mRNA in the absence of chemical substance (yeast gene YFL030W): 2.0
- The level of expressed mRNA in the presence of chemical substance/The level of expressed mRNA in the absence of chemical substance (yeast gene YFL031W): 0.7
- The level of expressed mRNA in the presence of chemical substance/The level of expressed mRNA in the absence of chemical substance (yeast gene YFL056C): 1.5
- The level of expressed mRNA in the presence of chemical substance/The level of expressed mRNA in the absence of chemical substance (yeast gene YFL057C): 1.8
- The level of expressed mRNA in the presence of chemical substance/The level of expressed mRNA in the absence of chemical substance (yeast gene YFR047C): 2.6
- level of expressed mRNA in the presence/in the absence of chemical substance (yeast gene YGL012W): 1.2
- The level of expressed mRNA in the presence of chemical substance/The level of expressed mRNA in the absence of chemical substance (yeast gene YGL022W): 0.3
- level of expressed mRNA in the presence/in the absence of chemical substance (yeast gene YGL115W): 2.0
- The level of expressed mRNA in the presence of chemical substance/The level of expressed mRNA in the absence of chemical substance (yeast gene YGL126W): 0.8
- level of expressed mRNA in the presence/in the absence of chemical substance (yeast gene YGL205W): 0.8
- The level of expressed mRNA in the presence of chemical substance/The level of expressed mRNA in the absence of chemical substance (yeast gene YGL209W): 2.6
- The level of expressed mRNA in the presence of chemical substance/The level of expressed mRNA in the absence of chemical substance (yeast gene YGL248W): 0.7
- The level of expressed mRNA in the presence of chemical substance/The level of expressed mRNA in the absence of chemical substance (yeast gene YGR037C): 0.8
- The level of expressed mRNA in the presence of chemical substance/The level of expressed mRNA in the absence of chemical substance (yeast gene YGR055W): 0.7
- level of expressed mRNA in the presence/in the absence of chemical substance (yeast gene YGR096W): 4.6
- level of expressed mRNA in the presence/in the absence of chemical substance (yeast gene YGR191W): 1.5
- The level of expressed mRNA in the presence of chemical substance/The level of expressed mRNA in the absence of chemical substance (yeast gene YGR194C): 2.1
- level of expressed mRNA in the presence/in the absence of chemical substance (yeast gene YGR204W): 1.3
- The level of expressed mRNA in the presence of chemical substance/The level of expressed mRNA in the absence of chemical substance (yeast gene YGR256W): 0.8
- The level of expressed mRNA in the presence of chemical substance/The level of expressed mRNA in the absence of chemical substance (yeast gene YGR282C): 1.9
- level of expressed mRNA in the presence/in the absence of chemical substance (yeast gene YGR288W): 2.6
- level of expressed mRNA in the presence/in the absence of chemical substance (yeast gene YHR025W): 0.6
- The level of expressed mRNA in the presence of chemical substance/The level of expressed mRNA in the absence of chemical substance (yeast gene YHR111W): 1.9
- level of expressed mRNA in the presence/in the absence of chemical substance (yeast gene YHR123W): 1.0
- The level of expressed mRNA in the presence of chemical substance/The level of expressed mRNA in the absence of chemical substance (yeast gene YHR137W): 1.7
- The level of expressed mRNA in the presence of chemical substance/The level of expressed mRNA in the absence of chemical substance (yeast gene YHR174W): 1.2
- The level of expressed mRNA in the presence of chemical substance/The level of expressed mRNA in the absence of chemical substance (yeast gene YHR176W): 1.4
- level of expressed mRNA in the presence/in the absence of chemical substance (yeast gene YHR210C): 5.2
- level of expressed mRNA in the presence/in the absence of chemical substance (yeast gene YIL006W): 2.9
- The level of expressed mRNA in the presence of chemical substance/The level of expressed mRNA in the absence of chemical substance (yeast gene YIL045W): 2.2
- The level of expressed mRNA in the presence of chemical substance/The level of expressed mRNA in the absence of chemical substance (yeast gene YIL107C): 1.5
- The level of expressed mRNA in the presence of chemical substance/The level of expressed mRNA in the absence of chemical substance (yeast gene YIL154C): 0.8
- The level of expressed mRNA in the presence of chemical substance/The level of expressed mRNA in the absence of chemical substance (yeast gene YIL155C): 3.7
- The level of expressed mRNA in the presence of chemical substance/The level of expressed mRNA in the absence of chemical substance (yeast gene YIR034C): 0.6
- The level of expressed mRNA in the presence of chemical substance/The level of expressed mRNA in the absence of chemical substance (yeast gene YIR036C): 1.8
- The level of expressed mRNA in the presence of chemical substance/The level of expressed mRNA in the absence of chemical substance (yeast gene YJL031C): 1.3
- The level of expressed mRNA in the presence of chemical substance/The level of expressed mRNA in the absence of chemical substance (yeast gene YJL068C): 1.6
- The level of expressed mRNA in the presence of chemical substance/The level of expressed mRNA in the absence of chemical substance (yeast gene YJL088W): 0.5
- The level of expressed mRNA in the presence of chemical substance/The level of expressed mRNA in the absence of chemical substance (yeast gene YJL099W): 1.3
- level of expressed mRNA in the presence/in the absence of chemical substance (yeast gene YJL121C): 0.8
- level of expressed mRNA in the presence/in the absence of chemical substance (yeast gene YJL167W): 1.1
- The level of expressed mRNA in the presence of chemical substance/The level of expressed mRNA in the absence of chemical substance (yeast gene YJL172W): 1.5
- level of expressed mRNA in the presence/in the absence of chemical substance (yeast gene YJL216C): 0.9
- The level of expressed mRNA in the presence of chemical substance/The level of expressed mRNA in the absence of chemical substance (yeast gene YJL219W): 1.6
- level of expressed mRNA in the presence/in the absence of chemical substance (yeast gene YJR077C): 1.6
- The level of expressed mRNA in the presence of chemical substance/The level of expressed mRNA in the absence of chemical substance (yeast gene YJR137C): 0.8
- level of expressed mRNA in the presence/in the absence of chemical substance (yeast gene YJR143C): 0.8
- The level of expressed mRNA in the presence of chemical substance/The level of expressed mRNA in the absence of chemical substance (yeast gene YJR148W): 3.5
